The subject of this assay is human σ1 receptor and human μ-opioid receptor. The assay can be described thus: Human σ1 receptor radioligand assay and human μ-opioid receptor radioligand assay (μ and σ1 dual binding). Further details: key to μ and σ1 dual binding: +: Both Ki-μ and Ki-σ1>=500 nM; ++: One Ki<500 nM while the other Ki is >=500 nM; +++: Both Ki-μ and Ki-σ1<500 nM; ++++: Both Ki-μ and Ki-σ1<100 nM.

Setting [1] is: combined class for Ki-μ ([3H]-DAMGO, CHO-K1 membranes) and Ki-σ1 ([3H](+)-pentazocine, HEK-293 membranes).

The values that follow come from patent publication US10407428B2, “Spiro-isoquinoline-1,4′-piperidine compounds having multimodal activity against pain” (ESTEVE PHARMACEUTICALS, S.A., priority 2014, dated 2019).

Read-outs that look alike come from different tables or passages of the source.

Turning to `CC(=O)N1CCc2ccccc2C12CCN(CC1CCOCC1)CC2` [Example 9, 1-(1′-((tetrahydro-2H-pyran-4-yl)methyl)-3,4-dihydro-2H-spiro[isoquinoline-1,4'-piperidine]-2-yl)ethanone], the “μ and σ1 dual binding” value is reported as “++”. `CC(=O)N1CCc2ccccc2C12CCN(CCOC(C)C)CC2` [Example 11, 1-(1′-(2-isopropoxyethyl)-3,4-dihydro-2H-spiro[isoquinoline-1,4′-piperidine]-2-yl)ethanone] returned a Ki of less than 500 nM.

Turning to `CC(=O)N1CCc2ccccc2C12CCN(CC(C)C)CC2` [Example 12, 1-(1′-isobutyl-3,4-dihydro-2H-spiro[isoquinoline-1,4′-piperidine]-2-yl)ethanone], the “μ and σ1 dual binding” value was “++”. Take `CC(=O)N1CCc2ccccc2C12CCN(CC1CCCCC1)CC2` [Example 13, 1-(1′-(cyclohexylmethyl)-3,4-dihydro-2H-spiro[isoquinoline-1,4′-piperidine]-2-yl)ethanone]: the Ki was less than 500 nM. Regarding `CC(=O)N1CCc2ccccc2C12CCN(CCN1CCCCC1)CC2` [Example 14, 1-(1′-(2-(piperidin-1-yl)ethyl)-3,4-dihydro-2H-spiro[isoquinoline-1,4′-piperidine]-2-yl)ethanone], the Ki under setting [1] was no less than 500 nM. As for `CC(=O)N1CCc2ccccc2C12CCN(CCC(C)C)CC2` [Example 15, 1-(1′-isopentyl-3,4-dihydro-2H-spiro[isoquinoline-1,4′-piperidine]-2-yl)ethanone], the Ki was less than 500 nM.

`CC(=O)N1CCc2ccccc2C12CCN(Cc1ccccn1)CC2` [Example 17, 1-(1′-(pyridin-2-ylmethyl)-3,4-dihydro-2H-spiro[isoquinoline-1,4′-piperidine]-2-yl)ethanone]: the “μ and σ1 dual binding” value is “++”.

Turning to `CC(=O)N1CCc2ccccc2C12CCN(CCOc1ccccc1)CC2` [Example 20, 1-(1′-(2-phenoxyethyl)-3,4-dihydro-2H-spiro[isoquinoline-1,4′-piperidine]-2-yl)ethanone], the “μ and σ1 dual binding” value is given as “++”. Regarding `CC(=O)N1CCc2ccccc2C12CCN(CCC(=O)N(C)C)CC2` [Example 22, 3-(2-acetyl-3,4-dihydro-2H-spiro[isoquinoline-1,4′-piperidine]-1′-yl)-N,N-dimethylpropanamide], the Ki under setting [1] is no less than 500 nM. Turning to `CCOCCN1CCC2(CC1)c1ccccc1CCN2C(C)=O` [Example 24, 1-(1′-(2-ethoxyethyl)-3,4-dihydro-2H-spiro[isoquinoline-1,4′-piperidine]-2-yl)ethanone], the “μ and σ1 dual binding” value was “++”. Regarding `CC(=O)N1CCc2ccccc2C12CCN(CCOCC1CC1)CC2` [Example 30, 1-(1′-(2-(cyclopropylmethoxy)ethyl)-3,4-dihydro-2H-spiro[isoquinoline-1,4′-piperidine]-2-yl)ethanone], the Ki is less than 500 nM. Take `CC(=O)N1CCc2ccccc2C12CCN(CCOCC(C)C)CC2` [Example 31]: the Ki was less than 500 nM.

In the case of `CC(=O)N1CCc2ccccc2C12CCN(CCOCc1ccccc1)CC2` [Example 32, 1-(1′-(2-(benzyloxy)ethyl)-3,4-dihydro-2H-spiro[isoquinoline-1,4′-piperidine]-2-yl)ethanone], the “μ and σ1 dual binding” value is listed as “++”. Consider `CC(=O)N1CCc2ccccc2C12CCN(CC1CC1)CC2` [Example 33, 1-(1′-(Cyclopropylmethyl)-3,4-dihydro-2H-spiro[isoquinoline-1,4′-piperidine]-2-yl)ethanone], for which the inhibition constant (Ki) under setting [1] is no less than 500 nM.

Turning to `CC(=O)N1CCc2ccccc2C12CCN(CC(=O)N1CCOCC1)CC2` [Example 34, 2-(2-acetyl-3,4-dihydro-2H-spiro[isoquinoline-1,4′-piperidine]-1′-yl)-1-morpholinoethanone], under setting [1], the inhibition constant Ki was no less than 500 nM. For `CC(=O)N1CCc2ccccc2C12CCN(CCC(=O)N(C)c1ccccc1)CC2` [Example 35, 3-(2-acetyl-3,4-dihydro-2H-spiro[isoquinoline-1,4′-piperidine]-1′-yl)-N-methyl-N-phenylpropanamide], the “μ and σ1 dual binding” value is recorded as “++”. With `CC(=O)N1CCc2ccccc2C12CCN(CCNC(=O)OC(C)(C)C)CC2` [Example 37, tert-butyl 2-(2-acetyl-3,4-dihydro-2H-spiro[isoquinoline-1,4′-piperidine]-1′-yl)ethylcarbamate], the Ki under setting [1] is no less than 500 nM. As for `CC(=O)OC(CN1CCC2(CC1)c1ccccc1CCN2C(C)=O)c1ccccc1` (stereo not drawn) [Example 39, 2-(2-Acetyl-3,4-dihydro-2H-spiro[isoquinoline-1,4′-piperidine]-1′-yl)-1-phenylethyl acetate], the Ki under setting [1] was no less than 500 nM. The same measure, in the same setting: as for `CC(=O)N1CCc2ccccc2C12CCN(CCO)CC2` [Example 41, 1-(1′-(2-Hydroxyethyl)-3,4-dihydro-2H-spiro[isoquinoline-1,4′-piperidine]-2-yl)ethanone], the figure is no less than 500 nM. In the case of `CC(=O)N1CCc2ccccc2C12CCN(CCOc1ccccn1)CC2` [Example 42, 1-(1′-(2-(Pyridin-2-yloxy)ethyl)-3,4-dihydro-2H-spiro[isoquinoline-1,4′-piperidine]-2-yl)ethanone], the “μ and σ1 dual binding” value is reported as “++”. In the case of `CC(=O)N1CCc2ccccc2C12CCN(CCOc1cccnc1)CC2` [Example 43, 1-(1′-(2-(pyridin-3-yloxy)ethyl)-3,4-dihydro-2H-spiro[isoquinoline-1,4′-piperidine]-2-yl)ethanone], the “μ and σ1 dual binding” value is listed as “++”. On to `CC(=O)N1CCc2ccccc2C12CCN(CCOc1ccncc1)CC2` [Example 44, 1-(1′-(2-(pyridin-4-yloxy)ethyl)-3,4-dihydro-2H-spiro[isoquinoline-1,4′-piperidine]-2-yl)ethanone], for which the “μ and σ1 dual binding” value is given as “++”. `CC(=O)N1CCc2ccccc2C12CCN(CCN(C)C(=O)OC(C)(C)C)CC2` [Example 46, tert-Butyl 2-(2-acetyl-3,4-dihydro-2H-spiro[isoquinoline-1,4′-piperidine]-1′-yl)ethyl(methyl)carbamate]: the Ki under setting [1] was no less than 500 nM. The same measure, in the same setting: as for `CNCCN1CCC2(CC1)c1ccccc1CCN2C(C)=O` [Example 47, 1-(1′-(2-(Methylamino)ethyl)-3,4-dihydro-2H-spiro[isoquinoline-1,4′-piperidine]-2-yl)ethanone], the figure is no less than 500 nM; as for `CC(=O)Oc1ccc2c(c1)CCN(C(C)=O)C21CCN(CCc2ccccc2)CC1` [Example 49, 2-Acetyl-1′-phenethyl-3,4-dihydro-2H-spiro[isoquinoline-1,4′-piperidine]-6-yl acetate], no less than 500 nM.

Consider `CS(=O)(=O)N1CCc2ccccc2C12CCN(CCc1ccccc1)CC2` [Example 53, 2-(Methylsulfonyl)-1′-phenethyl-3,4-dihydro-2H-spiro[isoquinoline-1,4′-piperidine]], for which the Ki is less than 100 nM. In the case of `CN1CCc2ccccc2C12CCN(CCc1ccccc1)CC2` [Example 54, 2-methyl-1′-phenethyl-3,4-dihydro-2H-spiro[isoquinoline-1,4′-piperidine]], the Ki was less than 100 nM. `COc1ccc2c(c1)CCN(C)C21CCN(CCc2ccccc2)CC1` [Example 55, 6-methoxy-2-methyl-1′-phenethyl-3,4-dihydro-2H-spiro[isoquinoline-1,4′-piperidine]]: the Ki is less than 100 nM. Regarding `CCN(CC)C(=O)CN1CCC2(CC1)c1ccccc1CCN2C` [Example 56, N,N-diethyl-2-(2-methyl-3,4-dihydro-2H-spiro[isoquinoline-1,4′-piperidine]-1′-yl)acetamide], the Ki is less than 500 nM. Turning to `CN1CCc2ccccc2C12CCN(CC(=O)N1CCCOCC1)CC2` [Example 57, 2-(2-methyl-3,4-dihydro-2H-spiro[isoquinoline-1,4′-piperidine]-1′-yl)-1-(1,4-oxazepan-4-yl)ethanone], the “μ and σ1 dual binding” value is recorded as “++”. In turn, `CN1CCc2ccccc2C12CCN(CC(=O)N1CCC(F)CC1)CC2` [Example 58, 1-(4-fluoropiperidin-1-yl)-2-(2-methyl-3,4-dihydro-2H-spiro[isoquinoline-1,4′-piperidine]-1′-yl)ethanone] registered a Ki of less than 500 nM. Take `CN1CCc2ccccc2C12CCN(CC(=O)N1CCC(C(C)(C)O)CC1)CC2` [Example 59, 1-(4-(2-hydroxypropan-2-yl)piperidin-1-yl)-2-(2-methyl-3,4-dihydro-2H-spiro[isoquinoline-1,4′-piperidine]-1′-yl)ethanone]: under setting [1], the Ki is no less than 500 nM. As to `COC1CCN(C(=O)CN2CCC3(CC2)c2ccccc2CCN3C)CC1` [Example 60, 1-(4-methoxypiperidin-1-yl)-2-(2-methyl-3,4-dihydro-2H-spiro[isoquinoline-1,4′-piperidine]-1′-yl)ethanone], the “μ and σ1 dual binding” value is “++”. Consider `CN1CCc2ccccc2C12CCN(CC(=O)N1CCC(F)(F)CC1)CC2` [Example 61, 1-(4,4-difluoropiperidin-1-yl)-2-(2-methyl-3,4-dihydro-2H-spiro[isoquinoline-1,4′-piperidine]-1′-yl)ethanone], for which the Ki was less than 500 nM. The molecule `CN1CCc2ccccc2C12CCN(CC(=O)N1CCC3(CC1)CC3)CC2` [Example 62, 2-(2-methyl-3,4-dihydro-2H-spiro[isoquinoline-1,4′-piperidine]-1′-yl)-1-(6-azaspiro[2.5]octan-6-yl)ethanone] displayed a Ki of less than 100 nM. Regarding `CCN1CCc2ccccc2C12CCN(CCc1ccccc1)CC2` [Example 63, 2-Ethyl-1′-phenethyl-3,4-dihydro-2H-spiro[isoquinoline-1,4′-piperidine]], the Ki was less than 100 nM.

Consider `c1ccc(CCN2CCC3(CC2)c2ccccc2CCN3Cc2nccs2)cc1` [Example 64, 2-((1′-phenethyl-3,4-dihydro-2H-spiro[isoquinoline-1,4′-piperidine]-2-yl)methyl)thiazole], for which the Ki is less than 500 nM. The molecule `CN1CCc2ccccc2C12CCN(CCN1CCOCC1)CC2` [Example 65, 4-(2-(2-Methyl-3,4-dihydro-2H-spiro[isoquinoline-1,4′-piperidine]-1′-yl)ethyl)morpholine] gave a Ki of less than 500 nM.

`CN1CCc2ccccc2C12CCN(CC1CCCCC1)CC2` [Example 66, 1′-(cyclohexylmethyl)-2-methyl-3,4-dihydro-2H-spiro[isoquinoline-1,4′-piperidine]] came in with a Ki of less than 500 nM.

For orientation: Ki means a dissociation constant, usually derived from enzyme kinetics or from competition with a known ligand.
